Key:
[1] = tested on: Akt phosphorylation; assay: Akt Phosphorylation Assay (western blot), Panc-1; assay type: cell-based, human; conditions: at 10 μM, * = activation
In short: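 Panc-1 (KRas G12D) cells were treated with compound at 10 μM final (0.3% DMSO) for 6 h at 37 °C, or with serial dilutions for IC50. Cells were either serum-starved overnight in 0.5% FBS and then stimulated with 1.5 ng/ml EGF for 15 min, or kept in 10% FBS without stimulation. Akt Ser473 phosphorylation in lysates was read by western blot.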

[2] = tested on: KRas G12C mutant; assay: Ras GTP Binding Domain Inhibition Assay (Ras Superfamily Assay); conditions: 20 μM compound; for KRas G12C mutant + SOS: % inh.: with SOS; for KRas G12C mutant: % inh.: without SOS
In short: (§1)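 Ni-plate capture of His-tagged protein (10-30 μg/mL, o/n 4° C); cpd 20 μM or dilution series, 1% DMSO, 3 h RT ± Sos 556-1049 last h; 100 nM Cy-labelled GTP 45 min RT; 3× wash; fluorescence read.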

[3] = tested on: KRas G12D mutant; assay: as above; conditions: for KRas G12D mutant + SOS: % inh.: with SOS; for KRas G12D mutant: % inh.: without SOS
In short: as §1

[4] = tested on: KRas Q61H mutant; assay: as above; conditions: 20 μM compound; for KRas Q61H mutant + SOS: % inh.: with SOS; for KRas Q61H mutant: % inh.: without SOS
In short: as §1

[5] = tested on: KRas wild type; assay: as above; conditions: for KRas wild type + SOS: % inh.: with SOS; for KRas wild type: % inh.: without SOS
In short: as §1

[6] = target: T1, Rac-1 (Homo sapiens, UniProt P63000); assay: as above; conditions: read-out: Rac-1: % inh.
T1 construct: made in house
In short: as §1

[7] = target: T2, Rho-A (Homo sapiens, UniProt P61586); assay: as above; conditions: read-out: Rho-A: % inh..
T2 construct: made in house
T2 sequence (P61586 whole entry): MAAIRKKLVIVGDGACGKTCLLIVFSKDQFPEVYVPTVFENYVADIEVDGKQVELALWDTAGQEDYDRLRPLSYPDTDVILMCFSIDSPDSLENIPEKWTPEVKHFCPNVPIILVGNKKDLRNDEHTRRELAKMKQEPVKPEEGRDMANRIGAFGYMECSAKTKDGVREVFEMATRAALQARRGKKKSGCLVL
In short: as §1

KRas G12C mutant + SOS: % inh. [2]	KRas G12C mutant: % inh. [2]	KRas G12D mutant + SOS: % inh. ([3]; 20 μM compound)	KRas G12D mutant: % inh. ([3]; 20 μM compound)	KRas Q61H mutant + SOS: % inh. [4]	KRas Q61H mutant: % inh. [4]	KRas wild type + SOS: % inh. ([5]; 20 μM compound)	KRas wild type: % inh. ([5]; 20 μM compound)	inhibition at 20 µM [6] [%]	inhibition at 20 µM [7] [%]	KRas G12D mutant + SOS: % inh. ([3]; at 20 μM)	KRas G12D mutant: % inh. ([3]; at 20 μM)	KRas wild type + SOS: % inh. ([5]; at 20 μM)	KRas wild type: % inh. ([5]; at 20 μM)	SMILES	% inh of Akt phosphorylation in Panc-1 [1]
0 (0 = 0% inhibition)	0 (0 = 0% inhibition)	A (A = 1-25% inhibition)	0 (0 = 0% inhibition)	0 (0 = 0% inhibition)	0 (0 = 0% inhibition)	0 (0 = 0% inhibition)	A (A = 1-25% inhibition)	0	0					Cn1ccnc1-c1nc(OCCN2CCCC2)c2c(-c3ccccc3)ccn2n1 [Compound 41, 2-(1-Methyl-1H-imidazol-2-yl)-5-phenyl-4-(2-(pyrrolidin-1-yl)ethoxy)pyrrolo[2,1-f][1,2,4]triazine]	A* (1-25% activation)
0 (0 = 0% inhibition)	A (A = 1-25% inhibition)	0 (0 = 0% inhibition)	A (A = 1-25% inhibition)	0 (0 = 0% inhibition)	A (A = 1-25% inhibition)	0 (0 = 0% inhibition)	A (A = 1-25% inhibition)	0	1 to 25					COc1cccc(-c2cn3nc(-c4nccn4C)nc(N[C@@H]4CC[C@H](OC)C4)c3c2-c2ccccc2)c1Cl (racemic) [Compound 33, rac 6-(2-Chloro-3-methoxyphenyl)-N-((1R,3S)-3-methoxycyclopentyl)-2-(1-methyl-1H-imidazol-2-yl)-5-phenylpyrrolo[2,1-f][1,2,4]triazin-4-amine]	D (85-100% inhibition)
A (A = 1-25% inhibition)	0 (0 = 0% inhibition)	A (A = 1-25% inhibition)	0 (0 = 0% inhibition)	A (A = 1-25% inhibition)	A (A = 1-25% inhibition)	0 (0 = 0% inhibition)	A (A = 1-25% inhibition)	0	1 to 25					COC[C@@H]1CC[C@@H]1CNc1nc(-c2ccccn2)nn2cc(-c3ccn(C(C)C)n3)c(-c3ccccc3)c12 (racemic) [Compound 26, rac 6-(1-Isopropyl-1H-pyrazol-3-yl)-N-(((1S,2R)-2-(methoxymethyl)cyclobutyl)methyl)-5-phenyl-2-(pyridin-2-yl)pyrrolo[2,1-f][1,2,4]triazin-4-amine]	C (50-84% inhibition)
0 (0 = 0% inhibition)	0 (0 = 0% inhibition)	0 (0 = 0% inhibition)	0 (0 = 0% inhibition)	0 (0 = 0% inhibition)	0 (0 = 0% inhibition)	0 (0 = 0% inhibition)	0 (0 = 0% inhibition)	0	1 to 25					COc1cccc(Nc2nc(-c3nccn3C)nn3ccc(C)c23)n1 [Compound 38, N-(6-Methoxypyridin-2-yl)-5-methyl-2-(1-methyl-1H-imidazol-2-yl)pyrrolo[2,1-f][1,2,4]triazin-4-amine]	0 (0% inhibition)
A (A = 1-25% inhibition)	0 (0 = 0% inhibition)	A (A = 1-25% inhibition)	A (A = 1-25% inhibition)			A (A = 1-25% inhibition)	0 (0 = 0% inhibition)	0	0					Cc1c(-c2ccn(C(C)C)n2)cn2nc(-c3nccn3C)nc(Nc3ccncc3)c12 [Compound 52, 6-(1-Isopropyl-1H-pyrazol-3-yl)-5-methyl-2-(1-methyl-1H-imidazol-2-yl)-N-(pyridin-4-yl)pyrrolo[2,1-f][1,2,4]triazin-4-amine]	B (26-49% inhibition)

The next lines start with the molecule.

SMILES	KRas G12C mutant + SOS: % inh. [2]	KRas G12C mutant: % inh. [2]	KRas G12D mutant + SOS: % inh. ([3]; 20 μM compound)	KRas G12D mutant: % inh. ([3]; 20 μM compound)	KRas Q61H mutant + SOS: % inh. [4]	KRas Q61H mutant: % inh. [4]	KRas wild type + SOS: % inh. ([5]; 20 μM compound)	KRas wild type: % inh. ([5]; 20 μM compound)	inhibition at 20 µM [6] [%]	inhibition at 20 µM [7] [%]	KRas G12D mutant + SOS: % inh. ([3]; at 20 μM)	KRas G12D mutant: % inh. ([3]; at 20 μM)	KRas wild type + SOS: % inh. ([5]; at 20 μM)	KRas wild type: % inh. ([5]; at 20 μM)	% inh of Akt phosphorylation in Panc-1 [1]
COc1ccc(Nc2nc(-c3nccn3C)nn3cc(-c4ccn(C(C)C)n4)c(C)c23)nn1 [Compound 74, 6-(1-Isopropyl-1H-pyrazol-3-yl)-N-(6-methoxypyridazin-3-yl)-5-methyl-2-(1-methyl-1H-imidazol-2-yl)pyrrolo[2,1-f][1,2,4]triazin-4-amine]									1 to 25	26 to 49					D* (85-100% activation)
COc1cc(Nc2nc(-c3nccn3C)nn3cc(-c4ccn(C(C)C)n4)c(C)c23)n[nH]1 [Compound 51, 6-(1-Isopropyl-1H-pyrazol-3-yl)-N-(5-methoxy-1H-pyrazol-3-yl)-5-methyl-2-(1-methyl-1H-imidazol-2-yl)pyrrolo[2,1-f][1,2,4]triazin-4-amine]	C (C = 50-75% inhibition)	C (C = 50-75% inhibition)	C (C = 50-75% inhibition)	D (D = 76-100% inhibition)			C (C = 50-75% inhibition)	D (D = 76-100% inhibition)	76 to 100	76 to 100					D* (85-100% activation)
COc1ccnc(Nc2nc(-c3nccn3C)nn3cc(-c4ccn(C)n4)c(C4CC4)c23)c1 [Compound 276, 5-Cyclopropyl-N-(4-methoxypyridin-2-yl)-2-(1-methyl-1H-imidazol-2-yl)-6-(1-methyl-1H-pyrazol-3-yl)pyrrolo[2,1-f][1,2,4]triazin-4-amine]									76 to 100		D (D = 76-100% inhibition)	D (D = 76-100% inhibition)	D (D = 76-100% inhibition)	D (D = 76-100% inhibition)	D* (85-100% activation)
COc1cccc(-c2cn3nc(-c4nccn4C)nc(N[C@H]4C[C@@H](OC)C4)c3c2-c2ccccc2)c1C [Compound 269, 6-(3-Methoxy-2-methylphenyl)-N-((1s,3s)-3-methoxycyclobutyl)-2-(1-methyl-1H-imidazol-2-yl)-5-phenylpyrrolo[2,1-f][1,2,4]triazin-4-amine]									26 to 49		B (B = 26-49% inhibition)	B (B = 26-49% inhibition)	A (A = 1-25% inhibition)	C (C = 50-75% inhibition)	C (50-84% inhibition)
Cc1c(-c2ccn(C)n2)cn2nc(-c3nccn3C)nc(Nc3cc(-n4ccnc4)ccn3)c12 [Compound 245, N-(4-(1H-imidazol-1-yl)pyridin-2-yl)-5-methyl-2-(1-methyl-1H-imidazol-2-yl)-6-(1-methyl-1H-pyrazol-3-yl)pyrrolo[2,1-f][1,2,4]triazin-4-amine]									50 to 75		C (C = 50-75% inhibition)	C (C = 50-75% inhibition)	B (B = 26-49% inhibition)	A (A = 1-25% inhibition)	D* (85-100% activation)
COc1cc(Nc2nc(-c3nccn3C)nn3cc(-c4ccn(C)n4)c(C)c23)nn1C [Compound 253, N-(5-Methoxy-1-methyl-1H-pyrazol-3-yl)-5-methyl-2-(1-methyl-1H-imidazol-2-yl)-6-(1-methyl-1H-pyrazol-3-yl)pyrrolo[2,1-f][1,2,4]triazin-4-amine]									76 to 100		D (D = 76-100% inhibition)	C (C = 50-75% inhibition)	D (D = 76-100% inhibition)	D (D = 76-100% inhibition)	D* (85-100% activation)
COc1ccc(F)c(-c2cn3nc(-c4nccn4C)nc(N[C@H]4C[C@H](OC)C4)c3c2-c2ccccc2)c1F [Compound 273, 6-(2,6-Difluoro-3-methoxyphenyl)-N-((1r,3r)-3-methoxycyclobutyl)-2-(1-methyl-1H-imidazol-2-yl)-5-phenylpyrrolo[2,1-f][1,2,4]triazin-4-amine]									1 to 25		A (A = 1-25% inhibition)	B (B = 26-49% inhibition)	A (A = 1-25% inhibition)	0 (0 = 0% inhibition)	D (85-100% inhibition)
